Laboratory results taken from ChEMBL document CHEMBL1128235, “Inhibitors of HIV-1 protease containing the novel and potent (R)-(hydroxyethyl)sulfonamide isostere” (J Med Chem, 1995).

Experiments:
CCRF-CEM [1] = test: Antiviral activity against HIVIIIB strain of HIV-1 was determined in an CEM based assay; assay type: functional, cell-based; conditions: Homo sapiens
[2] = Toxicity in CEM cells infected with HIVIIIB strain of HIV-1; assay type: cell-based; conditions: human, CEM (CCRF-CEM) cells infected with HIV-1 strain IIIB; read-out: TD50 (the source's name)
CCRF-CEM [3] = test: Antiviral activity against HIVIIIB strain of HIV-1 was determined in an CEM based assay.; assay type: functional, cell-based; conditions: Homo sapiens
[4] = biological target: T1, Human immunodeficiency virus type 1 protease (Human immunodeficiency virus 1, UniProt Q72874); test: Binding affinity for HIV-1 protease was determined in vitro.
[5] = biological target: T1, Human immunodeficiency virus type 1 protease; test: Binding affinity for HIV-1 protease was determined
[6] = biological target: T1, Human immunodeficiency virus type 1 protease; test: Ability to inhibit HIV-1 protease was determined using spectrofluorimetric assay
[7] = biological target: T1, Human immunodeficiency virus type 1 protease; test: Ability to inhibit HIV-1 protease was determined using spectrofluorimetric assay.
[8] = biological target: T1, Human immunodeficiency virus type 1 protease; test: Binding affinity for HIV-1 protease was determined.
[9] = biological target: T1, Human immunodeficiency virus type 1 protease; test: Binding affinity for HIV-1 protease was determined in vitro

Question: With CC(C)CCN(C[C@@H](O)[C@H](Cc1ccccc1)NC(=O)[C@H](CC(N)=O)NC(=O)c1ccc2ccccc2n1)S(=O)(=O)c1ccccc1 as the compound, how does the EC50 (CCRF-CEM [1]) read?
Answer: 5 nM

Question: What about the CC50 [2] of the same compound?
Answer: 203000 nM

Question: With CC(C)CCN(C[C@@H](O)[C@H](Cc1ccccc1)NC(=O)OCc1ccccc1)S(=O)(=O)c1ccccc1 as the compound, how does the EC50 (CCRF-CEM [3]) read?
Answer: 55 nM

Question: What about the CC50 [2] of the same compound?
Answer: 26000 nM

Question: What about the Ki [4] of the same compound?
Answer: 10 nM

Question: Which Ki [5] does the source give for CC(C)CCN(C[C@@H](O)[C@H](Cc1ccccc1)NC(=O)[C@H](CC(N)=O)NC(=O)OCc1ccccn1)S(=O)(=O)c1ccccc1 here?
Answer: 0.5 nM

Question: And the IC50 [6]?
Answer: 2.2 nM

Question: Which IC50 [7] does the source give for CC(C)CCN(C[C@@H](O)[C@H](Cc1ccccc1)NC(=O)OCc1ccccc1)S(=O)(=O)c1cccc(Cl)c1 here?
Answer: 92 nM

Question: What about the Ki [8] of the same compound?
Answer: 61 nM

Question: For O=C(N[C@@H](Cc1ccccc1)[C@H](O)CN(CC1CCCCC1)S(=O)(=O)c1ccccc1)OCc1ccccc1, which Ki [5] is on record?
Answer: 6.7 nM

Question: What about the IC50 [6] of the same compound?
Answer: 14 nM

Question: What does the source list for CCCS(=O)(=O)N(CCC(C)C)C[C@@H](O)[C@H](Cc1ccccc1)NC(=O)OCc1ccccc1?
Answer: IC50 [7]: 210 nM; Ki [8]: 128 nM

Question: What does the source list for CC(C)CCN(C[C@@H](O)[C@H](Cc1ccccc1)NC(=O)[C@H](CC(N)=O)NC(=O)c1ccc2ccccc2n1)S(C)(=O)=O?
Answer: EC50 (CCRF-CEM [1]): 53 nM; CC50 [2]: 45000 nM; Ki [9]: 13 nM

Question: With CC(C)CCN(C[C@@H](O)[C@H](Cc1ccccc1)NC(=O)OCc1ccccc1)S(=O)(=O)c1ccccc1Cl as the compound, how does the IC50 [7] read?
Answer: 380 nM

Question: And the Ki [8]?
Answer: 227 nM

Question: With CC(C)CCN(C[C@H](O)[C@H](Cc1ccccc1)NC(=O)OCc1ccccc1)S(=O)(=O)c1ccccc1 as the compound, how does the IC50 [7] read?
Answer: 450 nM

Question: What about the Ki [8] of the same compound?
Answer: 295 nM

Question: Which results are given for CC(C)CCN(C[C@@H](O)[C@H](Cc1ccccc1)NC(=O)OCc1ccccc1)S(C)(=O)=O?
Answer: Ki [5]: 1870 nM; IC50 [6]: 3200 nM

Question: For CC(C)CCN(C[C@@H](O)[C@H](Cc1ccccc1)NC(=O)OCc1ccccc1)S(=O)(=O)Cc1ccccc1, which IC50 [7] is on record?
Answer: 10000 nM

Question: For CC(C)CCN(C[C@@H](O)[C@H](Cc1ccccc1)NC(=O)[C@H](CC(N)=O)NC(=O)OCc1ccccc1)S(C)(=O)=O, which Ki [5] is on record?
Answer: 57 nM

Question: And the IC50 [6]?
Answer: 100 nM

Question: Which IC50 [7] does the source give for CC(C)CCN(C[C@@H](O)[C@H](Cc1ccccc1)NC(=O)OCc1ccccc1)S(=O)(=O)c1ccc(Cl)cc1 here?
Answer: 10 nM

Question: And the Ki [8]?
Answer: 4.1 nM

Question: Which EC50 (CCRF-CEM [1]) does the source give for CC(C)CN(C[C@@H](O)[C@H](Cc1ccccc1)NC(=O)OCc1ccccc1)S(=O)(=O)c1ccccc1 here?
Answer: 113 nM

Question: And the Ki [9]?
Answer: 3.2 nM

Question: What does the source list for O=C(N[C@@H](Cc1ccccc1)[C@H](O)CN(Cc1ccccc1)S(=O)(=O)c1ccccc1)OCc1ccccc1?
Answer: Ki [5]: 125 nM; IC50 [6]: 190 nM
